Reference: article PMC3824017 (The Journal of Cell Biology, 2013)

How the values were obtained:
[1] = target: T1, erlin-1 (Homo sapiens, UniProt O75477); assay type: binding
T1 sequence (O75477 1-348): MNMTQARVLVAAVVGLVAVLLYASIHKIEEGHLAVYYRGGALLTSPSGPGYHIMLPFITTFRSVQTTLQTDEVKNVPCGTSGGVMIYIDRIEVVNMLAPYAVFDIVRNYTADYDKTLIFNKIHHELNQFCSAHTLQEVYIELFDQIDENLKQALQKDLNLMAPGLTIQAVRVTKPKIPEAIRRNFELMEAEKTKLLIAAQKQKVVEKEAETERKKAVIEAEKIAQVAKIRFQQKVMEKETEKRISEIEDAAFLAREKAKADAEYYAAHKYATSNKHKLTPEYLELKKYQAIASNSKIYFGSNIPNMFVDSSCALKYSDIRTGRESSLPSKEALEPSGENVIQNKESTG

[2] = target: T2, erlin-2 (native erlin-1/2 complex) (Mus musculus, UniProt Q8BFZ9+Q91X78); assay type: binding
T2 sequence (Q8BFZ9 1-340): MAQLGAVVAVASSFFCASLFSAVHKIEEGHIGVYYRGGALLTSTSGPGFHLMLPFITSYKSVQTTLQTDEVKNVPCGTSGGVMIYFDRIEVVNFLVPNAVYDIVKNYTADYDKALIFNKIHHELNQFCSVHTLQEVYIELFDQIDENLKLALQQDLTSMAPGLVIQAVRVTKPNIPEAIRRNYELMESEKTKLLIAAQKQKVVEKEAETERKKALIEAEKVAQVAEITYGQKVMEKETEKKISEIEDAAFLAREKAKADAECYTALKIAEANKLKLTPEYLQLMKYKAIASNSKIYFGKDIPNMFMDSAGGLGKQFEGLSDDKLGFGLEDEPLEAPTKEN
T2 sequence (Q91X78 1-348): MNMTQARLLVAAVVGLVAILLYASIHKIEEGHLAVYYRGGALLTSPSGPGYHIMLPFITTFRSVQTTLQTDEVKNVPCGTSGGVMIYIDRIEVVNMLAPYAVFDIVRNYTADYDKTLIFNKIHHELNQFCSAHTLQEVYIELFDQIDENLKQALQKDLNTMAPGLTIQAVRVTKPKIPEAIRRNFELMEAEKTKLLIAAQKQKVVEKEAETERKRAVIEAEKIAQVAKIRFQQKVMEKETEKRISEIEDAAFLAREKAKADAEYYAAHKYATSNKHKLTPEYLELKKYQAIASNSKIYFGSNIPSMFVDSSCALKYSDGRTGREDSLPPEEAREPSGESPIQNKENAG

Kd [1]: 13.2 µM
Kd [2]: 13.4 µM
Compound: CC(C)CCC[C@@H](C)[C@H]1CC[C@H]2[C@@H]3CC=C4C[C@@H](O)CC[C@]4(C)[C@H]3CC[C@]12C [cholesterol]
